Test results taken from the supplement of paper PMC9938120.

Experiments:
Test in all cases: drug sensitivity score (DSS3, normalised partial AUC of % inhibition dose-response) (DSS (score)); higher = more sensitive (stronger inhibition of viability); extreme values may be limits of the assay
[1] = test system: FMOC02_1 (patient-derived low-grade serous ovarian cancer cells); conditions: 72 h; library: FO5A; assay format: 2D, 384-well, CellTiter-Glo
How it was run: (§1)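 The drug sensitivity score is calculated as a partial area under the percent-inhibition dose-response curve, divided by the log of the upper asymptote; higher scores mean more sensitive. For this score, early-passage (under 10) patient-derived ovarian cancer cells were exposed on 384-well flat clear-bottom plates to compounds at five concentrations across a 10,000-fold range for 72 h at 37 °C, 5% CO2. Viability was read with CellTiter-Glo and processed in Breeze.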

[2] = test system: FMOC11 (patient-derived high-grade serous ovarian cancer cells); conditions: 72 h; library: FO5A; assay format: 2D, 384-well, CellTiter-Glo
How it was run: as §1

[3] = test system: FMOC14 (patient-derived high-grade serous ovarian cancer cells); conditions: 72 h; library: FO5A; assay format: 2D, 384-well, CellTiter-Glo
How it was run: as §1

[4] = test system: FMOC06 (patient-derived mucinous ovarian cancer cells); conditions: 72 h; library: FO5A; assay format: 2D, 384-well, CellTiter-Glo
How it was run: as §1

[5] = test system: FMOC28 (patient-derived low-grade serous ovarian cancer cells); conditions: 72 h; library: FO5A; assay format: 2D, 384-well, CellTiter-Glo
How it was run: as §1

[6] = test system: FMOC24 (patient-derived high-grade serous ovarian cancer cells); conditions: 72 h; library: FO5A; assay format: 2D, 384-well, CellTiter-Glo
How it was run: as §1

[7] = test system: FMOC04 (patient-derived high-grade serous ovarian cancer cells); conditions: 72 h; library: FO5A; assay format: 2D, 384-well, CellTiter-Glo
How it was run: as §1

[8] = test system: FMOC25_1 (patient-derived low-grade serous ovarian cancer cells); conditions: 72 h; library: FO4B; assay format: 2D, 384-well, CellTiter-Glo
How it was run: as §1

[9] = test system: FMOC27 (patient-derived low-grade serous ovarian cancer cells); conditions: 72 h; library: FO5A; assay format: 2D, 384-well, CellTiter-Glo
How it was run: as §1

[10] = test system: FMOC03 (patient-derived mucinous ovarian cancer cells); conditions: 72 h; library: FO5A; assay format: 2D, 384-well, CellTiter-Glo
How it was run: as §1

[11] = test system: FMOC02_3 (patient-derived low-grade serous ovarian cancer cells); conditions: 72 h; library: FO5A; assay format: 2D, 384-well, CellTiter-Glo
How it was run: as §1

[12] = test system: FMOC02_2 (patient-derived low-grade serous ovarian cancer cells); conditions: 72 h; library: FO5A; assay format: 2D, 384-well, CellTiter-Glo
How it was run: as §1

[13] = test system: FMOC22 (patient-derived mucinous ovarian cancer cells); conditions: 72 h; library: FO5A; assay format: 2D, 384-well, CellTiter-Glo
How it was run: as §1

[14] = test system: FMOC17 (patient-derived low-grade serous ovarian cancer cells); conditions: 72 h; library: FO5A; assay format: 2D, 384-well, CellTiter-Glo
How it was run: as §1

[15] = test system: FMOC25_2 (patient-derived low-grade serous ovarian cancer cells); conditions: 72 h; library: FO5A; assay format: 2D, 384-well, CellTiter-Glo
How it was run: as §1

[16] = test system: FMOC09 (patient-derived high-grade serous ovarian cancer cells); conditions: 72 h; library: FO5A; assay format: 2D, 384-well, CellTiter-Glo
How it was run: as §1

SMILES	drug sensitivity score [1]	drug sensitivity score [2]	drug sensitivity score [3]	drug sensitivity score [4]	drug sensitivity score [5]	drug sensitivity score [6]	drug sensitivity score [7]	drug sensitivity score [8]	drug sensitivity score [9]	drug sensitivity score [10]	drug sensitivity score [11]	drug sensitivity score [12]	drug sensitivity score [13]	drug sensitivity score [14]	drug sensitivity score [15]	drug sensitivity score [16]
COC(=O)N[C@@H](C)CNc1nccc(-c2cn(C(C)C)nc2-c2cc(Cl)cc(NS(C)(=O)=O)c2F)n1 [Encorafenib]	4.2	0	0	0	0	0	0	0.2	0	0	0.9	0	0	0	3.3	0
c1cn2cc(-c3ccc4cn[nH]c4c3)nc(Nc3ccc(N4CCOCC4)cc3)c2n1 [Entospletinib]	4.3	0.7	0	0	0	0	0	0.1	0	0	0	3.2	0	1.8	0	0
CNC(=O)c1ccc(N2C(=S)N(c3ccc(C#N)c(C(F)(F)F)c3)C(=O)C2(C)C)cc1F [Enzalutamide]	0	0	0	0.1	0	0	0	0	0.1	0	0	0	0	0	0	0
Cn1cc(C2=C(c3cn(C4CCN(Cc5ccccn5)CC4)c4ccccc34)C(=O)NC2=O)c2ccccc21 [Enzastaurin]	4.8	0	5	0	0	3.95	0	0	0.3	0.5	5.8	4.4	0.3	5.1	0	1.5
NS(=O)(=O)NCCNc1nonc1/C(=N/O)Nc1ccc(F)c(Br)c1 [Epacadostat]	0	0	0	0.1	0.9	0.1	0	0	0	0	0.4	0	0	0	0	0
C=C1C[C@@H]2[C@H](CC[C@]3(C)C(=O)CC[C@@H]23)[C@@]2(C)C=CC(=O)C=C12 [Exemestane]	0	0	0	0.4	0	0.35	0	0	0	0	0	0	0	0	0	0
O=C(Nc1nc2cccc(-c3ccc(CN4CCS(=O)(=O)CC4)cc3)n2n1)C1CC1 [Filgotinib]	2.6	0	0	1.3	5.2	3.1	0	1.9	5	0	6.1	2.9	0	3.3	3.9	0.4
CC(C)(C)NC(=O)[C@H]1CC[C@H]2[C@@H]3CC[C@H]4NC(=O)C=C[C@]4(C)[C@H]3CC[C@]12C [Finasteride]	0	0	0	0	0	1.1	0	0	0	0	0	0	0	0	0	0
Nc1nc(F)nc2c1ncn2[C@@H]1O[C@H](CO)[C@@H](O)[C@@H]1O [Fludarabine]	3	0	0	0.9	0	0	0	4.3	0	0	2	0.5	1.3	0	1.9	0.8
O=c1[nH]cc(F)c(=O)[nH]1 [Fluorouracil]	2.3	0	0	0	1.2	0.1	2.65	3.1	0	0	3.6	1.8	2.2	1	4.3	0
CC(C)C(=O)Nc1ccc([N+](=O)[O-])c(C(F)(F)F)c1 [Flutamide]	0	0	0	0	0	2.1	0.05	0	0	0	0	0	0	0	0	0
COc1cc2c(Oc3ccc(NC(=O)C4(C(=O)Nc5ccc(F)cc5)CC4)cc3F)ccnc2cc1OCCCN1CCOCC1 [Foretinib]	2.6	0.8	0.6	3.1	0	1.35	1.1	0.6	2.2	0	3.2	1.9	0.5	1.7	2.4	1.1
COc1cc(Nc2ncc(F)c(Nc3ccc4c(n3)N(COP(=O)(O)O)C(=O)C(C)(C)O4)n2)cc(OC)c1OC [Fostamatinib]	6.7	2.6	0	2.6	1.9	3.6	0	8.6	1.1	2.3	7.6	3.5	0.4	3.4	6.6	1.2
C[C@]12CC[C@@H]3c4ccc(O)cc4C[C@@H](CCCCCCCCC[S+]([O-])CCCC(F)(F)C(F)(F)F)[C@H]3[C@@H]1CC[C@@H]2O (some centres not stated) [Fulvestrant]	0	0	0	0	0	0	0	0	0	0	0	0	0	0	0	0
CNc1nc(Nc2cn(C(C)(C)C#N)nc2C)ncc1C(F)(F)F [GNE-0877]	0	0	0	0	0	0	0	0	0	0	0	0	0	0	0	0
CCNc1nc(Nc2cc(F)c(C(=O)N3CCOCC3)cc2OC)ncc1C(F)(F)F [GNE-7915]	0	0	0	0	2	0	0	0	0	0	1	0	0	0	0	0
CCCc1cc(C)[nH]c(=O)c1CNC(=O)c1cc(-c2ccnc(N3CCN(C)CC3)c2)cc2c1cnn2C(C)C [GSK343]	0	0	0	0	2	0.55	0	1.6	0	0	0	0	0	0.3	0.1	0.1
CCCOc1ccn2c(C(C)=O)cc(-c3ccccc3S(C)(=O)=O)c2c1 [GSK2801]	0	0	0	0	4.9	0	0	0	0	0	0	0.1	0	0	1.5	0
C[C@@H]1C=C2C(=O)O[C@@H]3CC[C@H](C1)[C@]23O [Galiellalactone]	5.9	4	5.5	2.5	6.7	1.65	5.9	0	3.8	3.9	2.3	5.9	4.2	5.8	4.6	6.7
Cc1cccc(-c2nn3c(c2-c2ccnc4ccc(C(N)=O)cc24)CCC3)n1 [Galunisertib]	0	0	0	0	0	0.35	0	0	0	0	0	0	0	0	0	0
CN1CC[C@@H](NC(=O)Nc2ccc(C#N)cc2)C[C@@H]1c1nc2ccccc2[nH]1 [Glasdegib]	0	0	0	0	3.7	2.75	0	0.1	0	0	0	0.4	0	0	5.2	0
CN1CCN(C2CCN(C(=O)Nc3cc(Oc4ccc(NC(=O)C5(C(=O)Nc6ccc(F)cc6)CC5)c(F)c4)ccn3)CC2)CC1 [Golvatinib]	1.2	0	0	0	0	3.35	0.7	0.9	0	0.5	2.2	1.2	0	0.2	4.3	0
